According to patent US20240197699A1, “BE[…] FOR USE IN THERAPY” (MOLECULAR RESEARCH PHARMACT S.R.L., priority 2021, published 2024):

Tests used:
[1] = tested on: AMPK, the downstream intracellular mediator of adiponectin receptors; test: Concentration-dependent activation of AMPK in HT22 neuronal cells (western blot, pAMPK/AMPK); format: cell-based, mouse; conditions: HT22 cells, 0, 10, 25 nM, 30 minutes, serum-free DMEM
Procedure: A rabbit anti-phospho-AMPK polyclonal antibody (pAMPK) (Cell Signaling Technology, Ltd.), a rabbit anti-AMPK polyclonal antibody (Cell Signaling Technology, Ltd.) and an HRP conjugated mouse monoclonal anti-β-actin antibody (Cell Signaling Technology, Ltd.) were used as primary antibodies after being suitably diluted. An HRP-labeled rabbit IgG goat antibody (Dako, Glostrup, Denmark) was used as a secondary antibody.
(§1) Under conditions of 5% CO2 at 37° C., mouse neuronal cells (HT22) were maintained and expanded in a Dulbecco-modified high-glucose Eagle medium (DMEM, GIBCO, Invitrogen, Life Technologies Hong Kong Ltd.), containing 10% fetal bovine serum (FBS, HiClone, Cytiva Co., Ltd.) and 1% v/v penicillin/streptomycin (Life Technologies Hong Kong Ltd.).
The compound was dissolved in DMSO (Sigmaldrich Co Ltd.) at a concentration of 10 mM as a stock. […]
Each cell sample was homogenized in ice-cold lysis buffer (Cell Signaling Technology, USA), containing a cocktail of protease inhibitors, by ultrasonic homogenizer before being centrifuged at 12,000×g, 4° C. for 15 min. […] The protein concentration of each fraction was measured using the BioRad Protein Assay reagent (Bio-Rad Laboratories, Inc.). […] The densitometric analysis of the bands detected by the chemiluminescent reaction was quantified by the Image J software (NIH: National Institutes of Health). […]

AdipoR1 = target: T1, AdipoR1 (Mus musculus, UniProt Q91VH1); test: AMPK activation by the compound in HT22 cells under AdipoR1 knock-down (siAdipoR1); format: cell-based; conditions: HT22 cells transfected with siAdipoR1, compound 25 nM, 30 minutes
T1 construct: siAdipoR1, siAdipoR2 were prepared in DMEM to break down the expression of AdipoR1 and AdipoR2, respectively; endogenous in cells; host or cells: HT22 mouse neuronal cells
T1 sequence (Q91VH1 1-375): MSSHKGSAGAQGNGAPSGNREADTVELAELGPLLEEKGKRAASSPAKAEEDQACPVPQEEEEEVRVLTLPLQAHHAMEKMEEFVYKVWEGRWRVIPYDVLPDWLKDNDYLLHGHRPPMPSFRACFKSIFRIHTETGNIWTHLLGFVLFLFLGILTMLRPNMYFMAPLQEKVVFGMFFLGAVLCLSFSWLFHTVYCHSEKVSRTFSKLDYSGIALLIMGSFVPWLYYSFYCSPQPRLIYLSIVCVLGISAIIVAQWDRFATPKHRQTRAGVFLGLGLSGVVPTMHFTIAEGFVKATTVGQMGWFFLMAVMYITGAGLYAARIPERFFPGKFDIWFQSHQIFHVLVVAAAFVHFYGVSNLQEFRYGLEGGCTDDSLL
From the text: A rabbit adiponectin anti-receptor 1 polyclonal antibody (AdipoR1)(Abcam, Cambridge, MA, USA), a rabbit adiponectin anti-receptor 2 polyclonal antibody (AdipoR2) (Boster Biological Technology, USA), an anti-phospho-AMPK (pAMPK) rabbit polyclonal antibody (Cell Signaling Technology, Ltd.), an anti-AMPK rabbit polyclonal antibody (Cell Signaling Technology, Ltd.) and an HRP conjugated mouse monoclonal anti-§ (beta)-actin antibody (Cell Signaling Technology, Ltd.) were used as primary antibodies after being suitably diluted. An HRP conjugated goat anti-rabbit IgG antibody (Dako, Glostrup, Denmark) was used as secondary antibody.
as §1, with “are” for “were”
SiRNA scramble (non-targeting RNA), siAdipoR1 and siAdipoR2 were purchased from Santa Cruz Biotechnology. siAdipoR1, siAdipoR2 were prepared in DMEM to break down the expression of AdipoR1 and AdipoR2, respectively. […]
The extraction of each soluble fraction and the quantification of the proteins in each soluble fraction by western blot analysis were performed according to procedures similar to section 1.4 of Experiment 1.

NSC-34 cells = test: Viability of NSC-34 neuronal cells under high glucose (hyperglycemia-induced apoptosis); format: cell-based; conditions: pre-treatment 25 nM, then 100 mM glucose
Procedure: A high glucose level is the cause of neuronal apoptosis leading to diabetic neuropathy. To examine whether SS-SRGR-(+7) can protect neurons from the hyperglycemic condition, neuronal cells in different glucose concentrations (0, 25, 50, 100 mM) were grown. […] NSC-34 neurons were then pre-treated with or without SS-SRGR-(+7)(25 nM) prior to incubation with 100 mM glucose.

What does the source list for `CC1C2Cc3ccc(O)cc3C1(C)CCN2CCC(C(=O)N(C)C)(c1ccccc1)c1ccccc1` (stereo not drawn) [SS-SRGR-(+7), 4-(8-hydroxy-6,11-dimethyl-1,4,5,6-tetrahydro-2,6-methane-3-benzazocin-3(2H)-yl)-N,N-dimethyl-2,2-diphenylbutanamide]?
amounts of pAMPK proteins (pAMPK/AMPK ratio, densitometry) [1]: increase significantly in a concentration-dependent manner; SS-SRGR-(+7)-induced AMPK activation under Adipo-R1 knock-down compared to siCtrl-transfected HT22 cells (AdipoR1): significantly reduced; Cell viability of pretreated NSC34 cells versus vehicle-pretreated NSC34 (NSC-34 cells): significantly higher
